The values that follow come from patent publication US20040259934A1, “Inhibiting Coronaviridae viral replication and treating Coronaviridae viral infection with nucleoside compounds” (priority 2003, published 2004).

Bounds are passed on as bounds.

Assay [1] concerns Human coronavirus OC43. Briefly: Cytopathic effect (CPE) inhibition assay against a coronavirus. The format is cell-based. The settings on record: Betacoronavirus 1, OC43 / SC1, BSC-1, 144 h. On the procedure:
(§1) The assays employed to measure activity against coronavirus are described below (wherein CPE=cytopathic effect; FBS=fetal bovine serum; MEM=minimal essential medium; MOI=multiplicity of infection; and NR=neutral red):
(§2) Human coronavirus OC43 was obtained from the American Type Culture Collection (ATCC, Manassas, Va., USA). This virus was originally isolated from the tracheal washings of a person with cold-like symptoms.
(§3) B-SC-1 cells propagated from adult African green kidney cells were grown in MEM supplemented with 0.1% NaHCO3 and 10% FBS. When performing antiviral assays, serum was reduced to 2% and 50 μg/mL gentamicin was added to the medium.
Each compound was diluted in MEM using a four log dilution series (i.e., 100, 10, 1.0, 0.1 μg/ml) and 100 μL added to the appropriate wells of a 96 well cell culture plate with confluent cells (see plate format below). The coronavirus was diluted in MEM 2% FBS to an MOI=0.001 in a volume of 100 μL and added immediately to plate (usually within 5 minutes of drug addition). […] The plates were then scored for virus cytopathic effect at each dilution of compound tested. The 50% effective concentration (EC50) was calculated by regression analysis using the means of the CPE ratings at each concentration of compound.
A general note: Damage to the host cells serves as the signal in cytopathic effect assays.

Assay [2] relates to Human coronavirus OC43. Briefly: Neutral red uptake assay against a coronavirus. Type of assay: cell-based. The settings on record: Betacoronavirus 1, OC43 / SC1, BSC-1. On the procedure:
as §1, §2, §3
After performing the CPE inhibition assay above, an additional cytopathic detection method was used, in which medium was removed from each well of a plate scored for CPE from a CPE inhibition assay, 0.034% NR was added to each well of the plate and the plate incubated for 2 hr at 37° C. in the dark. The NR solution was then removed from the wells. After rinsing and aspirating to dryness, the remaining dye was extracted for 30 min at room temperature in the dark from the cells using absolute ethanol buffered with Sörenson citrate buffer. […] Absorbances at 540 nm and 450 nm were read with a microplate reader (Bio-Tek EL 1309; Bio-Tek Instruments, Inc., Winooski, Vt.). Absorbance values were expressed as percentages of untreated controls and EC50 and IC50 values were calculated by regression analysis.

Usually EC50 stands for the concentration giving half of the maximal effect. For `C[C@@]1(O)[C@H](O)[C@@H](CO)O[C@H]1n1cnc2c(N)ncnc21` [2′-C-methyladenosine], the 50% effective concentration (EC50) in the assay on Human coronavirus OC43 [1] is less than 100 µM; in the assay on Human coronavirus OC43 [2] it was not above 10 µM.

With `C[C@@]1(O)[C@H](O)[C@@H](CO)O[C@H]1n1ccc(N)nc1=O` [2′-C-methylcytidine], the concentration giving a half-maximal response (EC50) in the assay with Human coronavirus OC43 [1] was less than 100 µM; in the assay with Human coronavirus OC43 [2] it was not above 10 µM.

With `C[C@@]1(O)[C@H](O)[C@@H](CO)O[C@H]1n1ccc2c(N)ncnc21` [Example 1, 4-Amino-7-(2-C-methyl-β-D-ribofuranosyl)-7H-pyrrolo[2,3-d]pyrimidine], the EC50 is less than 100 µM in the assay with Human coronavirus OC43 [1] and not above 10 µM with Human coronavirus OC43 [2].
